Experimental data from patent publication US20070275855A1, “Herbicidal Composition” (ISHIHARA SANGYO KAISHA, LTD., priority 2004, published 2007).

What was measured:
Type in all cases: in vivo
[1] = test system: Japanese bulrush (Scirpus juncoides); assay: Test Example 4: paddy pot test, submerged application at 2.2 to 2.8 leaf stage; conditions: for Growth inhibition rate (%) Observed: 2.2 to 2.8 leaf stage, 29 days after application
Source text: (§1) Growth inhibition rate (%)=0% (equivalent to the non-treated area) to 100% (complete kill)
Paddy field soil was put into a 1/1,700 are pot, and seeds of Japanese bulrush (Scirpus juncoides) were sown and left to stand under an irrigated condition with a water depth of 3.5 cm. When Japanese bulrush reached 2.2 to 2.8 leaf stage, a wettable powder of compound A2, a wettable powder of compound B1 and an emulsifiable concentrate of benfuresate were, respectively, diluted with water and applied under submerged condition so that the active ingredients became the prescribed amounts, respectively. The state of growth was visually observed 29 days after application and evaluated in the same manner as in the above Test Example 1.

[2] = test system: barnyardgrass (Echinochloa oryzicola vasing); assay: Test Example 2: paddy pot test, submerged application at 2 leaf stage; conditions: for Growth inhibition rate (%) Observed: 2 leaf stage, 18 days after application
Source text: (§2) When the herbicidal activity in a case where two active ingredients are combined, is larger than the simple sum of the respective herbicidal activities of the two active ingredients (the expected activity), it is called a synergistic effect. The activity expected by the combination of two active ingredients can be calculated as follows (Colby S. R., “Weed”, vol. 15, p. 20-22, 1967). E=α+β−(α×β÷100) where α: growth inhibition rate when treated with x (g/a) of herbicide X,
(§3) β: growth inhibition rate when treated with y (g/a) of herbicide Y,
(§4) E: growth inhibition rate expected when treated with x (g/a) of herbicide X and y (g/a) of herbicide Y.
(§5) Namely when the actual growth inhibition rate (observed value) is larger than the growth inhibition rate by the above calculation (expected value), the activity by the combination can be regarded as showing a synergistic effect.
as §1
(§6) Paddy field soil was put into a 1/10,000 are pot, and seeds of barnyardgrass (Echinochloa oryzicola vasing) were sown and left to stand under an irrigated condition with a water depth of 3.5 cm. When barnyardgrass reached 2 leaf stage, a wettable powder of compound A2 diluted with water and a microemulsion of compound B1 as it was were, respectively, applied under submerged condition so that the active ingredients became the prescribed amounts, respectively. The state of growth was visually observed 18 days after application and evaluated in the same manner as in the above Test Example 1.

[3] = test system: barnyardgrass (Echinochloa oryzicola vasing); assay: Test Example 1: paddy pot test, submerged application on the next day after sowing; conditions: for Growth inhibition rate (%) Observed: next day after sowing, 21 days after application
Source text: as §2, §3, §4, §5
Paddy field soil was put into a 1/1,700 are pot, and seeds of barnyardgrass (Echinochloa oryzicola vasing) were sown and left to stand under an irrigated condition with a water depth of 3.5 cm. On the next day after the sowing, a wettable powder of compound A2 diluted with water and a microemulsion of compound B1 as it was were, respectively, applied under submerged condition so that the active ingredients became the prescribed amounts, respectively The state of growth was visually observed 21 days after application and the growth inhibition rate (%) evaluated in accordance with the following evaluation standard (observed value) and the growth inhibition rate (%) calculated by the above-mentioned Colby method (expected value) are shown in Table 1.
as §1

[4] = test system: barnyardgrass (Echinochloa oryzicola vasing); assay: Test Example 5: paddy pot test, submerged application at 2.4 to 3.2 leaf stage
Source text: as §1
as §6, with “2.4 to 3.2” for “2”, “stage,” for “stage, a”, “powders” for “powder”, “A2 compound B1 and azimsulfuron were, respectively,” for “A2”, “and” for “and a microemulsion of compound B1 as it was were, respectively,”, “29” for “18”

[5] = test system: barnyardgrass (Echinochloa oryzicola vasing); assay: Test Example 3: paddy pot test, submerged application at 3 leaf stage; conditions: 504 h, 21 days after application, read-out: Growth inhibition rate (%) Observed
Source text: as §2, §3, §4, §5, §1
Paddy field soil was put into a 1/10,000 are pot, and seeds of barnyardgrass (Echinochloa oryzicola vasing) were sown and left to stand under an irrigated condition with a water depth of 3.5 cm. […] The state of growth was visually observed 21 days after application and evaluated in the same manner as in the above Test Example 1.

[6] = Schoenoplectiella juncoides, 696 h, read-out: Growth inhibition rate (%) Observed
[7] = Echinochloa oryzicola, 432 h, read-out: Growth Inhibition rate (%) Observed
[8] = Echinochloa oryzicola, 504 h, read-out: Growth inhibition rate (%) Observed

COCC(=O)OC(c1ncccc1S(=O)(=O)NC(=O)Nc1nc(OC)cc(OC)n1)C(C)F (stereo not drawn) [Compound A2, flucetosulfuron]
Growth inhibition rate (%) Observed ([1]; 0.22 g/a): 87%
Growth inhibition rate (%) Observed ([2]; 0.05 g/a): 84%
Growth inhibition rate (%) Observed ([2]; 0.10 g/a): 98%
Growth inhibition rate (%) Observed ([2]; 0.15 g/a): 99%
Growth inhibition rate (%) Observed ([3]; 0.1 g/a): 95%
Growth inhibition rate (%) Observed ([3]; 0.2 g/a): 98%
Growth inhibition rate (%) Observed ([4]; 0.11 g/a, 2.4 to 3.2 leaf stage, 29 days after application): 96%

CCOC(=O)C(Cl)Cc1cc(-n2nc(C)n(C(F)F)c2=O)c(F)cc1Cl (stereo not drawn) [Compound B1, carfentrazone-ethyl]
inhibition at 50 g/ha [1, 6]: 80%
inhibition at 100 g/ha [1, 6]: 100%
inhibition at 150 g/ha [1, 6]: 99%
inhibition at 30 g/ha [2, 7]: 3%
inhibition at 45 g/ha [2, 7]: 8%
inhibition at 67.5 g/ha [2, 7]: 13%
inhibition at 101.2 g/ha [2, 7]: 18%
inhibition at 20 g/ha [3, 8]: 0%
inhibition at 30 g/ha [3, 8]: 0%
inhibition at 37.5 g/ha ([4]; Echinochloa oryzicola, 696 h, read-out: Growth inhibition rate (%) Observed): 5%
inhibition at 11.3 g/ha ([5]; 0.113 g/a): 0%
inhibition at 22.5 g/ha ([5]; 0.225 g/a): 0%

CCS(=O)(=O)Oc1ccc2c(c1)C(C)(C)CO2 [Benfuresate, benfuresate, reference compound]
Growth inhibition rate (%) Observed ([1]; 6 g/a): 90%
Growth inhibition rate (%) Observed ([1]; 9 g/a): 89%
